Like-named read-outs stand apart in the source and are kept apart here.
Experiments:
[1] = tested on: Swiss Albino mice; experiment: Acute Intravenous Toxicity Studies in Mice; type: in vivo; settings: N-methylglucamine (meglumine) salt, i.v. lateral tail vein, 1 ml./min, 7 day observation, Litchfield and Wilcoxon
Experimental: (§1) Toxicity evaluations by three different techniques were carried out on solutions of the N-methylglucamine salts of 3-acetamido-5-(4,4-bishydroxymethyl-2-oxazolinyl)-2,4,6-triiodobenzoic acid and 3-acetamido-5-(4-methyl-4-hydroxymethyl-2-oxazolinyl)-2,4,6-triiodobenzoicacid. The techniques utilized are outlined below.
I. Acute Intravenous Toxicity Studies in Mice
Swiss Albino mice (Charles River) were dosed in the lateral tail vein with solutions of the iodinated compounds containing 50.4% iodine in the case of 3-acetamido-5-(4,4-bishydroxymethyl-2-oxazolinyl)-2,4,6-triiodobenzoic acid and 28.2% iodine in the case of 3-acetamido-5-(4-methyl-4-hydroxymethyl-2-oxazolinyl)-2,4,6-triiodobenzoicacid, injected at the rate of 1 ml./min. […] The LD50 values were calculated by the method of Litchfield and Wilcoxon (J. of Pharmac. and Exptl. Therap. 96: 99-113, 1949).

[2] = tested on: Swiss Albino mice; experiment: Intracerebral Toxicity in Mice; type: in vivo; settings: N-methylglucamine (meglumine) salt, 7 day observation, Litchfield and Wilcoxon
Experimental: as §1
II. Intracerebral Toxicity in Mice
Swiss Albino mice (Charles River) were used. Fixed volumes of solutions of various concentrations of the iodinated compounds were injected intracerebrally via a 27 gauge needle, (1/4 inch length) according to the method of Haley, et al. (Br. J. of Pharmac. 12:12-15, 1957). The animals were observed immediately after injections and daily throughout a 7 day observation period. The LD50 values were calculated by the method of Litchfield and Wilcoxon (J. of Pharmac. and Exptl. Therap. 96:99-113, (1949)).

[3] = tested on: Sprague Dawley rats; experiment: Intracisternal Toxicity in Rats; type: in vivo; settings: N-methylglucamine (meglumine) salt, 2 day observation, Litchfield and Wilcoxon
Experimental: as §1
III. Intracisternal Toxicity in Rats
Sprague Dawley (Carworth) rats were used. The method used was a variation of the procedure outlined by Melartin et al. (Invest. Rad. 5:13-21, 1970). After dosing, the animals were housed individually, and observed for immediate reactions and periodically for a 2 day observation period. The LD50 values were calculated according to the method of Litchfield and Wilcoxon, (J. of Pharmac. and Exptl. Therap. 96:[…], 1949).

[4] = water solubility of the sodium salt; type: physicochemical
[5] = read-out: water solubility of the sodium salt

| solubility [4, 5] [mg/mL] | SMILES | LD50 of Meglumine Salt, I.V. (Mice) [1] | LD50 of Meglumine Salt, Intracerebral (Mice) [2] | LD50 of Meglumine Salt, Intracisternal (Rats) [3] | solubility ([4]; w/v not given, read-out: solubility of the sodium salt) [mg/mL] |
| --- | --- | --- | --- | --- | --- |
| ~800 | Nc1c(I)c(C(=O)O)c(I)c(C(=O)NC(CO)(CO)CO)c1I [Example 3, 5-Amino-N-[tris(hydroxymethyl)methyl]-2,4,6-triiodoisophthalamic Acid] |  |  |  |  |
|  | CC(=O)Nc1c(I)c(C(=O)O)c(I)c(C2=NC(C)(CO)CO2)c1I (stereo not shown) [Example 8, 3-Acetamido-5-(4-methyl-4-hydroxymethyl-2-oxazolinyl)-2,4,6-triiodobenzoic Acid] | 5,500 mg. contained iodine/kg. anima | 280 mg. contained iodine/kg. anima | 28 mg. contained iodine/kg. anima | 738 |
| ~830 | CC(CO)(CO)NC(=O)c1c(I)c(N)c(I)c(C(=O)O)c1I [Example 6, 5-Amino-N-[2-(1,3-dihydroxy-2-methyl)propyl]-2,4,6-triiodoisophthalamic Acid] |  |  |  |  |

| SMILES | solubility [4, 5] [mg/mL] | LD50 of Meglumine Salt, I.V. (Mice) [1] | LD50 of Meglumine Salt, Intracerebral (Mice) [2] | LD50 of Meglumine Salt, Intracisternal (Rats) [3] | solubility ([4]; w/v not given, read-out: solubility of the sodium salt) [mg/mL] |
| --- | --- | --- | --- | --- | --- |
| CC(=O)Nc1c(I)c(C(=O)O)c(I)c(C2=NC(CO)(CO)CO2)c1I [Example 4, 3-Acetamido-5-(4,4-bis(hydroxymethyl)-2-oxazolinyl)-2,4,6-triiodobenzoic Acid] | 958 | 5,522 mg. contained iodine/kg. anima | 485 mg. contained iodine/kg. anima | 55 mg. contained iodine/kg. anima |  |

Source: patent US4066743A, “X-ray contrast agents” (Mallinckrodt, Inc., priority 1976, dated 1978)
